Test results: patent EP0033980A1, “Derivatives of 2-methylpropionic acid, process for their preparation and pharmaceutical compositions containing them” (SCHIAPPARELLI FARMACEUTICI S.p.A., priority 1980, dated 1981)

Test system: Triglycerid- und Cholesteringehaltes im Blut
Test: Reduction of blood triglyceride and cholesterol content after 10 days of daily peroral treatment, versus untreated controls
Type: in vivo
Details: Ratten, 10 Tage, vs. Blindversuche
Excerpt: Diese Wirkungen wurden gegenüber der in der Therapie der Hyperlipidämie (übermäßiger Lipidgehalt im Blut) und Hypercholesterinämie (übermäßiger Cholesteringehalt im Blut) verbreitet angewandten und anerkannt gut wirksamen bekannten Vergleichssubstanz 2-(4'-Chlorphenoxy)-2-me- thylpropionsäure [Clofibrat] bestimmt.
Es wurden vorherbestimmte tägliche Dosen einer erfin-dungsgemäßen Verbindung Laboratoriumstieren (üblicherweise in Gruppen von je 6 Tiere unterteilten Ratten) peroral verabreicht, während die Vergleichssubstanz 2-(4'-Chlor- phenoxy)-2-methylpropionsäure [Clofibrat] in einser Dosis von 130 mg/kg/Tag ebenfalls peroral verabreicht wurde. Die Behandlung wurde 10 Tage fortgesetzt, dann wurden die Tiere geopfert und ihr Blut wurde gesammelt und der Bestimmung seines Triglycerid- und Cholesteringehaltes unterzogen. Die erhaltenen Ergebnisse, ausgedrückt als prozentuale Verminderung des Triglycerid- und Cholesteringehaltes im Blut (prozentuale Hemmung der Bildung des Triglycerid- und Cholesteringehaltes im Blut) gegenüber den Blindversuchen (das heißt den Ratten, welchen weder eine erfindungsgemäße Verbindung noch die Vergleichssubstanz verabreicht wurde), sind in der folgenden Tabelle zusammengestellt.

In the case of `CCOC(=O)C(C)(C)Oc1ccc(-c2ccc(F)cc2F)cc1` [Beispiel 2, 2-(2",4"-Difluordiphenyl-4'-yloxy)-2--methylpropionsäureäthylester], the “Verminderung des Cholesteringehaltes in %” value (peroral, 35 mg/kg/Tag) is reported as 23%, the “Verminderung des Triglyceridgehaltes in %” value (peroral, 35 mg/kg/Tag) is reported as 36% and the “Verminderung des Cholesteringehaltes in %” value (peroral, 50 mg/kg/Tag) is reported as 30%. For the same molecule, the “Verminderung des Triglyceridgehaltes in %” value (peroral, 50 mg/kg/Tag) was 29%, the “Verminderung des Cholesteringehaltes in %” value (peroral, 2,5 mg/kg/Tag) was 11% and the “Verminderung des Triglyceridgehaltes in %” value (peroral, 2,5 mg/kg/Tag) was 22%.
